According to patent US6461997B1, “Triazole sulfones having herbicidal activity” (Monsanto Technology LLC, priority 1999, dated 2002):

Columns and labels:
[1] = test system: VERPE (creeping speedwell); experiment: Pre-emergence herbicidal activity, cool season; format: in vivo, Veronica persicaria; conditions: lowest tested rate with 80% or greater inhibition; rates 300, 100, 30, 10 g/ha; about 14 days
Procedure, shortened: (§1)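 Seeds sown in sterilised fertilised topsoil received surface-applied compound in 50:50 acetone/water, typically at 300, 100, 30 and 10 g/ha, then greenhouse-grown at 30/21° C (warm-season species) or 18/13° C (cool-season species). Percent inhibition versus untreated plants was scored at about 14 days, giving GR80; an asterisk marks activity short of 80% at the top rate.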

[2] = test system: GALAP (catchweed bedstraw); experiment: Pre-emergence herbicidal activity, cool season; format: in vivo, Galium aparine; conditions: lowest tested rate with 80% or greater inhibition; rates 300, 100, 30, 10 g/ha; about 14 days
Procedure, shortened: as §1

SETVI (green foxtail) = experiment: Pre-emergence herbicidal activity, cool season; format: in vivo, Setaria viridis; conditions: GR80 = lowest tested rate (300, 100, 30, 10 g/ha) with 80% or greater inhibition; approx. 14 days after treating; 18/13° C.
Procedure, shortened: as §1

POLCO (wild buckwheat) = experiment: Pre-emergence herbicidal activity, cool season; format: in vivo, Polygonum convolvulus; conditions: lowest tested rate with 80% or greater inhibition; rates 300, 100, 30, 10 g/ha; about 14 days
Procedure, shortened: (§2)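 Seeds were sown in sterilized, fertilized topsoil, covered, and the soil surface was sprayed with compound in 50:50 acetone/water at 300, 100, 30 and 10 g/ha. Pots were held at 30/21 °C day/night (PANMI, DIGSA) or 18/13 °C (ALOMY, POLCO). GR80 came from percent inhibition versus untreated plants at about 14 days.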

SINAR (wild mustard) = experiment: Pre-emergence herbicidal activity, cool season; format: in vivo, Sinapis arvensis; conditions: lowest tested rate with 80% or greater inhibition; rates 300, 100, 30, 10 g/ha; about 14 days
Procedure, shortened: as §1

[3] = test system: LAMPU (purple deadnettle); experiment: Pre-emergence herbicidal activity, cool season; format: in vivo, Lamium purpureum; conditions: lowest tested rate with 80% or greater inhibition; rates 300, 100, 30, 10 g/ha; about 14 days
Procedure, shortened: as §1

BROTE (downy brome) = experiment: Pre-emergence herbicidal activity, cool season; format: in vivo, Bromus tectorum; conditions: GR80 = lowest tested rate (300, 100, 30, 10 g/ha) with 80% or greater inhibition; approx. 14 days after treating; 18/13° C.
Protocol: (§3) Tables 5 to 8 summarize results of tests conducted as described below to determine the pre-emergence herbicidal activity, in the form of a GR80 value, of illustrative compounds of this invention. […] Compounds of the invention were typically applied at rates of 300, 100, 30, and 10 g/ha. Where herbicidal activity was evident but 80% inhibition was not achieved at the highest rate tested, an asterisk (*) is shown in the following tables.
(§4) The pre-emergence tests were conducted by the following procedure. Topsoil was sieved to pass through a 1.27 cm screen. Fertilizer was added to the topsoil and the mixture was then sterilized by heating. The topsoil mixture was placed in a pot and compacted to a depth of 1.0 to 1.25 cm from the top of the pot. Seeds of each of several monocotyledonous and dicotyledonous annual plant species were placed on top of the soil. Additional soil was subsequently placed over the seeds to level-fill the pot. A known amount of each test compound dissolved or suspended in an appropriate organic solvent was diluted with a 50:50 mix of acetone and water and applied to the surface of the soil. After treatment the plants were placed in a greenhouse where they received 0.64 cm of overhead irrigation. All subsequent watering consisted of a light overhead mist and/or subirrigation as needed for germination and growth. Tables 5 and 6 below relate to warm season plant species which were placed after pre-emergence treatment in a greenhouse with a 30/21° C. day/night temperature regime. Tables 7 and 8 below relates to cool season plant species placed after pre-emergence treatment in a greenhouse or growth chamber with an 18/13° C. day/night temperature regime.
(§5) Approximately 14 days after planting and treating, the plants were observed and herbicidal efficacy recorded as percent inhibition by comparison with untreated plants.
(§6) The plant species usually regarded as weeds which were utilized in the tests are identified in the tables below according to the following legend, in which “d” indicates a dicotyledonous species and “m” a monocotyledonous species. All monocotyledonous species included in the tests herein are grasses.

STEME (common chickweed) = experiment: Pre-emergence herbicidal activity, cool season; format: in vivo, Stellaria media; conditions: lowest tested rate with 80% or greater inhibition; rates 300, 100, 30, 10 g/ha; about 14 days
Procedure, shortened: as §1

SASKR (russian thistle) = experiment: Pre-emergence herbicidal activity, cool season; format: in vivo, Salsola kali; conditions: lowest tested rate with 80% or greater inhibition; rates 300, 100, 30, 10 g/ha; about 14 days
Procedure, shortened: as §1

[4] = test system: BRAPP (broadleaf signalgrass); experiment: Pre-emergence herbicidal activity, warm season; format: in vivo, Brachiaria platyphylla; conditions: GR80 = lowest tested rate (300, 100, 30, 10 g/ha) with 80% or greater inhibition; approx. 14 days after treating; 30/21° C.
Procedure, shortened: (§7)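 Activity is expressed as the rate giving 80% inhibition, with 300, 100, 30 and 10 g/ha typically tested. An asterisk marks activity short of 80% at the top rate. Warm-season grasses were held at 30/21 °C; cool-season blackgrass and wild buckwheat at 18/13 °C; scoring at about 14 days.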

POROL (common purslane) = experiment: Pre-emergence herbicidal activity, warm season; format: in vivo, Portulaca oleracea; conditions: GR80 = lowest tested rate (300, 100, 30, 10 g/ha) with 80% or greater inhibition; approx. 14 days after treating; 30/21° C.
Procedure, shortened: as §1

[5] = test system: PANMI (wild proso millet); experiment: Pre-emergence herbicidal activity, warm season; format: in vivo, Panicum miliaceum; conditions: GR80 = lowest tested rate (300, 100, 30, 10 g/ha) with 80% or greater inhibition; approx. 14 days after treating; 30/21° C.
Procedure, shortened: as §2

[6] = test system: AGSST (creeping bentgrass); experiment: Pre-emergence herbicidal activity, cool season; format: in vivo, Agrostis stolonifera; conditions: GR80 = lowest tested rate (300, 100, 30, 10 g/ha) with 80% or greater inhibition; approx. 14 days after treating; 18/13° C.
Procedure, shortened: as §1

SETFA (giant foxtail) = experiment: Pre-emergence herbicidal activity, warm season; format: in vivo, Setaria faberi; conditions: GR80 = lowest tested rate (300, 100, 30, 10 g/ha) with 80% or greater inhibition; approx. 14 days after treating; 30/21° C.
Procedure, shortened: as §7

[7] = test system: CIRAR (canada thistle (seedling)); experiment: Pre-emergence herbicidal activity, warm season; format: in vivo, Cirsium arvense; conditions: GR80 = lowest tested rate (300, 100, 30, 10 g/ha) with 80% or greater inhibition; approx. 14 days after treating; 30/21° C.
Protocol: as §3, §4, §5, §6

PANDI (fall panicum) = experiment: Pre-emergence herbicidal activity, warm season; format: in vivo, Panicum dichotomiflorum; conditions: GR80 = lowest tested rate (300, 100, 30, 10 g/ha) with 80% or greater inhibition; approx. 14 days after treating; 30/21° C.
Protocol: as §3, §4, §5, §6

ALOMY (blackgrass) = experiment: Pre-emergence herbicidal activity, cool season; format: in vivo, Alopecurus myosuroides; conditions: GR80 = lowest tested rate (300, 100, 30, 10 g/ha) with 80% or greater inhibition; approx. 14 days after treating; 18/13° C.
Procedure, shortened: as §2

[8] = test system: SORHA (johnsongrass (seedling)); experiment: Pre-emergence herbicidal activity, warm season; format: in vivo, Sorghum halepense; conditions: GR80 = lowest tested rate (300, 100, 30, 10 g/ha) with 80% or greater inhibition; approx. 14 days after treating; 30/21° C.
Procedure, shortened: as §7

LOLMG (annual ryegrass) = experiment: Pre-emergence herbicidal activity, cool season; format: in vivo, Lolium multiflorum; conditions: GR80 = lowest tested rate (300, 100, 30, 10 g/ha) with 80% or greater inhibition; approx. 14 days after treating; 18/13° C.
Protocol: as §3, §4, §5, §6

CON(C)C(=O)n1cnc(S(=O)(=O)C(F)F)n1 [Example 34]
300 g/ha: Pre-emergence activity GR80, VERPE [1] | Pre-emergence activity (GR80) SETVI (SETVI (green foxtail)) | Pre-emergence activity GR80, POLCO (POLCO (wild buckwheat)) | Pre-emergence activity GR80, SINAR (SINAR (wild mustard)) | Pre-emergence activity GR80, LAMPU [3] | Pre-emergence activity (GR80) BROTE (BROTE (downy brome)) | Pre-emergence activity GR80, SASKR (SASKR (russian thistle))
[empty]: Pre-emergence activity GR80, GALAP [2] | Pre-emergence activity GR80, STEME (STEME (common chickweed))

CN(C(=O)n1cnc(S(=O)(=O)C(F)(F)Br)n1)C1CCCCC1 [Example 43]
300 g/ha: Pre-emergence activity (GR80) BRAPP [4] | Pre-emergence activity GR80, VERPE [1] | Pre-emergence activity GR80, GALAP [2] | Pre-emergence activity (GR80) POROL (POROL (common purslane)) | Pre-emergence activity (GR80) SETVI (SETVI (green foxtail)) | Pre-emergence activity GR80, LAMPU [3] | Pre-emergence activity GR80, STEME (STEME (common chickweed)) | Pre-emergence activity (GR80) CIRAR [7] | Pre-emergence activity (GR80) ALOMY (ALOMY (blackgrass))
100 g/ha: Pre-emergence activity (GR80) PANMI [5] | Pre-emergence activity (GR80) AGSST [6] | Pre-emergence activity (GR80) SETFA (SETFA (giant foxtail)) | Pre-emergence activity (GR80) PANDI (PANDI (fall panicum))
[empty]: Pre-emergence activity GR80, POLCO (POLCO (wild buckwheat)) | Pre-emergence activity GR80, SINAR (SINAR (wild mustard)) | Pre-emergence activity GR80, SASKR (SASKR (russian thistle))

CCN(CC)C(=S)n1cnc(S(=O)(=O)C(F)(F)Br)n1 [Example 46]
300 g/ha: Pre-emergence activity (GR80) SORHA [8] | Pre-emergence activity GR80, GALAP [2] | Pre-emergence activity (GR80) SETVI (SETVI (green foxtail)) | Pre-emergence activity GR80, POLCO (POLCO (wild buckwheat)) | Pre-emergence activity (GR80) PANMI [5] | Pre-emergence activity (GR80) AGSST [6] | Pre-emergence activity (GR80) SETFA (SETFA (giant foxtail)) | Pre-emergence activity GR80, STEME (STEME (common chickweed)) | Pre-emergence activity (GR80) PANDI (PANDI (fall panicum)) | Pre-emergence activity GR80, SASKR (SASKR (russian thistle))
100 g/ha: Pre-emergence activity GR80, VERPE [1] | Pre-emergence activity GR80, LAMPU [3]
[empty]: Pre-emergence activity GR80, SINAR (SINAR (wild mustard))

CON(C)C(=O)n1cnc(S(=O)(=O)C(F)(F)C(F)F)n1 [Example 69]
100 g/ha: Pre-emergence activity GR80, VERPE [1] | Pre-emergence activity GR80, GALAP [2] | Pre-emergence activity (GR80) SETVI (SETVI (green foxtail)) | Pre-emergence activity GR80, POLCO (POLCO (wild buckwheat))
[empty]: Pre-emergence activity GR80, LAMPU [3] | Pre-emergence activity GR80, SASKR (SASKR (russian thistle))
30 g/ha: Pre-emergence activity GR80, SINAR (SINAR (wild mustard))
300 g/ha: Pre-emergence activity (GR80) LOLMG (LOLMG (annual ryegrass)) | Pre-emergence activity (GR80) BROTE (BROTE (downy brome)) | Pre-emergence activity GR80, STEME (STEME (common chickweed)) | Pre-emergence activity (GR80) ALOMY (ALOMY (blackgrass))

CON(C)C(=O)n1cnc(S(=O)(=O)C(F)(F)C(F)(F)Br)n1 [Example 81]
30 g/ha: Pre-emergence activity GR80, SINAR (SINAR (wild mustard)) | Pre-emergence activity (GR80) BROTE (BROTE (downy brome)) | Pre-emergence activity GR80, STEME (STEME (common chickweed))
[empty]: Pre-emergence activity GR80, GALAP [2] | Pre-emergence activity GR80, POLCO (POLCO (wild buckwheat))
100 g/ha: Pre-emergence activity GR80, VERPE [1] | Pre-emergence activity GR80, LAMPU [3] | Pre-emergence activity (GR80) AGSST [6] | Pre-emergence activity GR80, SASKR (SASKR (russian thistle))

CN(C)C(=O)n1cnc(S(=O)(=O)C(F)(F)Cl)n1 [Example 85]
300 g/ha: Pre-emergence activity (GR80) SETVI (SETVI (green foxtail))
30 g/ha: Pre-emergence activity GR80, SINAR (SINAR (wild mustard)) | Pre-emergence activity GR80, STEME (STEME (common chickweed))
100 g/ha: Pre-emergence activity GR80, VERPE [1] | Pre-emergence activity (GR80) LOLMG (LOLMG (annual ryegrass)) | Pre-emergence activity GR80, LAMPU [3] | Pre-emergence activity (GR80) AGSST [6] | Pre-emergence activity (GR80) BROTE (BROTE (downy brome)) | Pre-emergence activity GR80, SASKR (SASKR (russian thistle))
[empty]: Pre-emergence activity GR80, GALAP [2] | Pre-emergence activity GR80, POLCO (POLCO (wild buckwheat))
